Data taken from patent US20240116921A1, “LACTAM (HETERO)[…] DERIVATIVES AS INHIBITORS OF ERBB2” (EnLiven Therapeutics, Inc., priority 2020, published 2024).

How the values were obtained:
[1] = test system: BT-474; assay: Cell viability assay (CellTiter Glo), BT-474; type: cell-based; settings: Homo sapiens; BT-474 cells, 72 hours, CellTiter Glo; read-out: IC50, cell viability, BT-474
[2] = target: Ba/F3 ERBB2 A775_G776insYVMA (Homo sapiens, UniProt P04626, DUP772-775, cells depend on it); assay: Cell viability assay, Ba/F3 ERBB2 A775_G776insYVMA; type: cell-based, mouse; settings: Ba/F3 ERBB2 A775_G776insYVMA cells, 72 hours, CellTiter Glo; Tables B2-B4; read-out: IC50, cell viability, Ba/F3 ERBB2 A775_G776insYVMA
In short: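 Viability after 72 h compound treatment (37 °C, 5% CO2) was quantified by CellTiter-Glo luminescence of intracellular ATP, with sigmoidal dose-response fitting. Cells were retrovirally engineered Ba/F3 lines whose growth depends on the mutant human ERBB2 in place of IL-3, plated at 3000 per well.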

[3] = target: Ba/F3 ERBB2-G776VC (Homo sapiens, UniProt P04626, DELINS776-776VC, cells depend on it); assay: Cell viability assay, Ba/F3 ERBB2-G776VC; type: cell-based, mouse; settings: 72 hours, CellTiter Glo, read-out: IC50, cell viability, Ba/F3 ERBB2-G776VC
Procedure: (§1) Cells were treated with compounds, and cell viability was measured as a metric of kinase inhibition.
(§2) The Ba/F3 cell line is IL-3-dependent mouse cell line derived from the C3H mouse strain. Ba/F3 cell lines were engineered to express human ERBB2 or EGFR kinases, rendering the cells IL-3 independent. The lines were generated via retroviral transduction utilizing a Moloney murine leukemia virus (MMLV) promoter, and constructs are stably integrated into the cell genome. The sequences of the ERBB2 and EGFR genes used were NCBI Reference Sequences NM_004448.3 and NM_005228.3, respectively.
(§3) Similarly, Ba/F3 cell lines engineered to express EGFR, ERBB2, or ERBB2 mutants were grown, harvested, counted and seeded at 3000 cells per well in 96-well plates. A subset of wells contained media only (low control, “LC”).
(§4) Table B1 provides the growth media and number of cells seeded per well for the each cell line.
(§5) Plates were placed in a 37° C., 5% CO2 incubator for 72 hours. Plates were then removed from the incubator and equilibrated for 15 minutes at room temperature. 40 μl of CellTiter Glo reagent (Promega) was added to measure the relative level of metabolically active cells by quantifying intracellular ATP concentrations. Plates were incubated for 30 minutes at room temperature, and luminescence was measured. Percent viability was normalized to a vehicle control only using the following formula: % viability=100×(Lumsample−LumLC)/(LumHC−Lum^LC). Graphical curves were fitted using a nonlinear regression model with a sigmoidal dose response.

[4] = target: Ba/F3 ERBB2-P780_Y781insGSP (Homo sapiens, UniProt P04626, DUP778-780, cells depend on it); assay: Cell viability assay, Ba/F3 ERBB2-P780_Y781insGSP; type: cell-based, mouse; settings: 72 hours, CellTiter Glo, read-out: IC50, cell viability, Ba/F3 ERBB2-P780_Y781insGSP
Procedure: as §1, §2, §3, §4
as §5, with “Percent viability was normalized to a vehicle control only using the following formula: % viability=100×(Lumsample−LumLC)/(LumHC−Lum^LC).” left out

[5] = target: Ba/F3 ERBB2-V777_G778insGC (Homo sapiens, UniProt P04626, INS778CG, cells depend on it); assay: Cell viability assay, Ba/F3 ERBB2-V777_G778insGC; type: cell-based, mouse; settings: 72 hours, CellTiter Glo, read-out: IC50, cell viability, Ba/F3 ERBB2-V777_G778insGC
Procedure: as §1, §2, §3, §4, §5

[6] = target: T1, phosphorylated ERBB2 (pERBB2) (Homo sapiens, UniProt P04626); assay: Detection of phosphorylated ERBB2 (pERBB2) by ELISA in BT-474 cells; type: cell-based; settings: four hours incubation
T1 construct: endogenous in cells; host or cells: BT-474
In short: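 Phospho-ERBB2 in lysates was quantified by sandwich ELISA (A450, TMB) after 4 h compound exposure at 37 °C of BT-474 cells seeded at 2.0×10^4 per well. Compounds tested at 10 µM to 0.01 nM final in four-fold steps; activity normalized to DMSO (0.1%) high and cell-free low controls.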

Sequence of Ba/F3 ERBB2-V777_G778insGC (P04626 with tags, fused parts or gaps INS778CG): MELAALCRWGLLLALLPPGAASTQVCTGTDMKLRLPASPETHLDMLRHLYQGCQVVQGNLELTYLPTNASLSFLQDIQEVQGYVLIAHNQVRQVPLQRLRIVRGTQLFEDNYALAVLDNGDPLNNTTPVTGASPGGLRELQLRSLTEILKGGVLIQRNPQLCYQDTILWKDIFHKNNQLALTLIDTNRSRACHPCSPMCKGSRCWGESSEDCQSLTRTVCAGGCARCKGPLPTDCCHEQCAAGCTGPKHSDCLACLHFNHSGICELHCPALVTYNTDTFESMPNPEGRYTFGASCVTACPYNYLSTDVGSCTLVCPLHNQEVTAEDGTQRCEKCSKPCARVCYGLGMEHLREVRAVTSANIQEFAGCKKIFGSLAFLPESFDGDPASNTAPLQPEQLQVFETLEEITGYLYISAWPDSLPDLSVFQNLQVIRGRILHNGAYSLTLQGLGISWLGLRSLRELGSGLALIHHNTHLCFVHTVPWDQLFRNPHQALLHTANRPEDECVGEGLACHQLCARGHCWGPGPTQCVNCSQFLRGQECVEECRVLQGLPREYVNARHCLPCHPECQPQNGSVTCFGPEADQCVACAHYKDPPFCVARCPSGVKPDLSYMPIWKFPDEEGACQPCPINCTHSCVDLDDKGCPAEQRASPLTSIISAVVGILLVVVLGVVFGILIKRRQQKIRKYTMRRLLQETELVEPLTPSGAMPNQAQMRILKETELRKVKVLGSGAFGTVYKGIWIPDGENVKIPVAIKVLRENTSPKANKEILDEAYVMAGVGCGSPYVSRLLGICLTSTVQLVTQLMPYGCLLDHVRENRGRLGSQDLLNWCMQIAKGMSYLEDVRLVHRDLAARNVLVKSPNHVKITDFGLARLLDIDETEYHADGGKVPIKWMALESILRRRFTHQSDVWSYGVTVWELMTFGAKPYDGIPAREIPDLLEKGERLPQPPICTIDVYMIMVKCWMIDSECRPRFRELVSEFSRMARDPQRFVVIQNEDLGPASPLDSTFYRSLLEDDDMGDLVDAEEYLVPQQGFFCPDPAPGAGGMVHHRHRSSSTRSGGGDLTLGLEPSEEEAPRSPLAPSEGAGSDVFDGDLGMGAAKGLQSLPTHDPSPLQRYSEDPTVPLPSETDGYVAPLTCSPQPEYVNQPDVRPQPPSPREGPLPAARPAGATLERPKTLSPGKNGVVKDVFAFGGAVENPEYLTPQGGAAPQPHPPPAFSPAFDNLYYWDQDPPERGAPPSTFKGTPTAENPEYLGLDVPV
T1 sequence (P04626 23-1255): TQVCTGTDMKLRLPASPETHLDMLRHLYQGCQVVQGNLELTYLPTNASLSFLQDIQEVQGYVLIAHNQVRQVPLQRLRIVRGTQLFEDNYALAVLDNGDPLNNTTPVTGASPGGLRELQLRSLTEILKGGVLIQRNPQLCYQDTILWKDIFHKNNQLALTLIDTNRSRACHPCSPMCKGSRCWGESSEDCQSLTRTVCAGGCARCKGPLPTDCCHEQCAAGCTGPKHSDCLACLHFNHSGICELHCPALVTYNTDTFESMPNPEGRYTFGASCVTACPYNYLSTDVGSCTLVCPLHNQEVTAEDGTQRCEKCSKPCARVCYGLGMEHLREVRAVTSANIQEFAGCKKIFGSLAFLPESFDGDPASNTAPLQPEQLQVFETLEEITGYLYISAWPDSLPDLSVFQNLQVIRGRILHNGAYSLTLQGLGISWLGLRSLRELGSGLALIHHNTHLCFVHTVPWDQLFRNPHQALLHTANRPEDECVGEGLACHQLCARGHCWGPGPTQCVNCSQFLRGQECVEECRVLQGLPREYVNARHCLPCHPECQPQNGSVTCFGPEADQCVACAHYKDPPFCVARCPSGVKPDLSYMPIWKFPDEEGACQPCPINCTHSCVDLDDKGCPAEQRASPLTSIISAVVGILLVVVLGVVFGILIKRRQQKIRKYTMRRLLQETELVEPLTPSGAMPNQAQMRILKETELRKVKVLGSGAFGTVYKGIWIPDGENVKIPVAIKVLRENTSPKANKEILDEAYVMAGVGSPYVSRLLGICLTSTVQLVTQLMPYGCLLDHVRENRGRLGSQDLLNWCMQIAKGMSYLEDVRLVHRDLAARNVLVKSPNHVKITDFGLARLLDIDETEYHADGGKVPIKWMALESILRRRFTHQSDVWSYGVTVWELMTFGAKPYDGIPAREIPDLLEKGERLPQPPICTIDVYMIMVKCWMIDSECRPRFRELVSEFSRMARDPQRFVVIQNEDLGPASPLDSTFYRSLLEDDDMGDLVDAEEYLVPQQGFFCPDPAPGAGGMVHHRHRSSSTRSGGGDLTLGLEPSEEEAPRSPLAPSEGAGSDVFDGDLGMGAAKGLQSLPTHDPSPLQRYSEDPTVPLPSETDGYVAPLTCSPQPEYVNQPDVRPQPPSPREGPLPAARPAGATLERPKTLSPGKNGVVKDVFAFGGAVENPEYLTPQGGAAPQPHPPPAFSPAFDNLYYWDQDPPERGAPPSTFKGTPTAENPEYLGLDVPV
Sequence of Ba/F3 ERBB2-P780_Y781insGSP (P04626 with tags, fused parts or gaps DUP778-780): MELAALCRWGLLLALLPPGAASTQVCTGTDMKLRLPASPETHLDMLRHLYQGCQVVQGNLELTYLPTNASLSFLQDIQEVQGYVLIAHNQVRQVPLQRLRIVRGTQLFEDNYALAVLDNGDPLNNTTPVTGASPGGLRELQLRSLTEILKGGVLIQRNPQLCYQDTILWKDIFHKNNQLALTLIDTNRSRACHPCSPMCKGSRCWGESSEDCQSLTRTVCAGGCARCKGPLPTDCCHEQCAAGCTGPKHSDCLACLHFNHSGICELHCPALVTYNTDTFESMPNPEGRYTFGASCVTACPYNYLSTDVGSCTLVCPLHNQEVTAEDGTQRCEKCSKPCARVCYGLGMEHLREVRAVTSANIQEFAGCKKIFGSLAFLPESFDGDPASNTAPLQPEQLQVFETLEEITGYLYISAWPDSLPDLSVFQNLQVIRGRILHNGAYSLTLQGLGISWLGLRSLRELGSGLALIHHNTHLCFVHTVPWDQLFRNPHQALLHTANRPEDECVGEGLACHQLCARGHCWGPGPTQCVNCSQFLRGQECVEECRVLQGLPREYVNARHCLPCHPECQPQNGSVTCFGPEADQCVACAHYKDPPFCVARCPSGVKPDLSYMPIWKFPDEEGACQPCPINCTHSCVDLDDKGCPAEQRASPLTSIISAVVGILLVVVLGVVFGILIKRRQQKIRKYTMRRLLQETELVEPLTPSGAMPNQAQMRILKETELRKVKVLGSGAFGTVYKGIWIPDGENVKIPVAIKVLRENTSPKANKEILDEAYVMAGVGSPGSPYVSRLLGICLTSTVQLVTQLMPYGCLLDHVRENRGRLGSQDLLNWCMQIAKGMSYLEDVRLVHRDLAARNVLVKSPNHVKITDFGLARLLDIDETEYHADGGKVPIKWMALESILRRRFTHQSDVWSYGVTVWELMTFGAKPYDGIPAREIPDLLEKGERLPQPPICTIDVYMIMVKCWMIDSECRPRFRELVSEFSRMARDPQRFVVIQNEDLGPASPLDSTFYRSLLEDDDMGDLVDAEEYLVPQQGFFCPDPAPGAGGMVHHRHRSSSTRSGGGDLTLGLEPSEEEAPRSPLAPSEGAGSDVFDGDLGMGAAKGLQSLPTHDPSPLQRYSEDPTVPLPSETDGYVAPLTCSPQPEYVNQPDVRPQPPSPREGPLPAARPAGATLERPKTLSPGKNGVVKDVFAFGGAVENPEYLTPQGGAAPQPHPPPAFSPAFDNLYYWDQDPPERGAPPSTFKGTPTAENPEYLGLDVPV
Sequence of Ba/F3 ERBB2 A775_G776insYVMA (P04626 with tags, fused parts or gaps DUP772-775): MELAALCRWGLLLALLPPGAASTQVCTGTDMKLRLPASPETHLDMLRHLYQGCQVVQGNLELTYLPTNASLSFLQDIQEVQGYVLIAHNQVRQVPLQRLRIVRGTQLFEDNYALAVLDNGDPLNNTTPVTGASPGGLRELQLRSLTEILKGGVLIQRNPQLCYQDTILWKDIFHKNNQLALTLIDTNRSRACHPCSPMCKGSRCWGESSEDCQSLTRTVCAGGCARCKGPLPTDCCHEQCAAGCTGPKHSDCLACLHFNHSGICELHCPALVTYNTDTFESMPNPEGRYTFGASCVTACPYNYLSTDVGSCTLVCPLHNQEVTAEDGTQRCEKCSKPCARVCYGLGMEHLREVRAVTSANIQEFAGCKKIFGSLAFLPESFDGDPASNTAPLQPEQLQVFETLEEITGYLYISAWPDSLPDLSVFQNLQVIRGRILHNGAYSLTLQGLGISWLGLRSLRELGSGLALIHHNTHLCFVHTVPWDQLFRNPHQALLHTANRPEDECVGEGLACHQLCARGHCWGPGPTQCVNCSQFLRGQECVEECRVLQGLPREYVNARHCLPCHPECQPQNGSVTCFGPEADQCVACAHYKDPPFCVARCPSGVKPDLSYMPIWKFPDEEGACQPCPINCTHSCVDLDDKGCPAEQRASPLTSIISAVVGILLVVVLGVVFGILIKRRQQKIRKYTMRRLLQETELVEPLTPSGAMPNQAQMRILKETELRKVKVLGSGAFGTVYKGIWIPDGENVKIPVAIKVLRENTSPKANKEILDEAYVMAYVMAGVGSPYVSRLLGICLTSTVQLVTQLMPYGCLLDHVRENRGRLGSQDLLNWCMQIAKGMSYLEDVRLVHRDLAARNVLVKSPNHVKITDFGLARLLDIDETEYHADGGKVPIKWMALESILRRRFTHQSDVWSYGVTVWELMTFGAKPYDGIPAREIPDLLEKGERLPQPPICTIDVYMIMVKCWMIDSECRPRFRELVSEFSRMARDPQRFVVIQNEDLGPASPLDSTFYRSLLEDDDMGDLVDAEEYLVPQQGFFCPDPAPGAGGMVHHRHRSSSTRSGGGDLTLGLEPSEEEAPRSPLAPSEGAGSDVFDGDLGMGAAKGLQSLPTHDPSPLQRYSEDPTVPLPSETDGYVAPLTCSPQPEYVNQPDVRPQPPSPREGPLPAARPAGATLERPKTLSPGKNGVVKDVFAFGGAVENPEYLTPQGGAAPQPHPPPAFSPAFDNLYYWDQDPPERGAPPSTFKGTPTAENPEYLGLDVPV

Row | IC50 [1] [nM] | IC50 [6] [nM] | SMILES | GI50 [2] [nM] | GI50 [3] [nM] | GI50 [4] [nM] | GI50 [5] [nM]
1 | 16.3 | 5.17 | C=C1CCN(c2ccc3ncnc(Nc4ccc(Oc5ccn6ccnc6c5)c(C)c4)c3c2)C1=O [Compound 4, 1-[4-[(4-[imidazo[1,2-a]pyridin-7-yloxy]-3-methylphenyl)amino]quinazolin-6-yl]-3-methylidenepyrrolidin-2-one] | 16 | 7.5 | 2.6 | 1.8
2 | 7.45 | 7.94 | C=C1CCN(c2ccc3ncnc(Nc4ccc(Oc5ccn6ncnc6c5)c(C)c4)c3c2)C1=O [Compound 1, 1-[4-[(3-methyl-4-[[1,2,4]triazolo[1,5-a]pyridin-7-yloxy]phenyl)amino]quinazolin-6-yl]-3-methylidenepyrrolidin-2-one] | 28 | 16 | 3.4 | 0.82
